# Patent US20230310660A1, “SHELF-STABLE INDOCYANINE GREEN SOLUTIONS AND METHODS OF MAKING THE SAME” (CAO Group, Inc., priority 2020, published 2023)
# How the values were obtained:
# [1] = after mixing with water; cited from earlier work
# [2] = Shelf stability of indocyanine green dissolved in water-free organic solvent; assay type: physicochemical; details: absence of water, room temperature
# Description: Through experimentation, it has been determined that the biggest cause of instability within ICG solutions to be nothing other than water and the second most recognizable factor is temperature. Therefore, with the instability factors identified the present invention identifies by way of experimentation with other solutions within which ICG is stable. An embodiment of the present invention utilizes organic liquids to create shelf stable ICG solutions. The present invention is a method of creating a shelf-stable, liquid, indocyanine green solution.
# More importantly, the type of organic solvent selected is not the important factor for stability—only the absence of water is required.
# When creating the solution, the manufacturing method is to add the ICG to the solvent(s) and stir until it dissolves. Thereafter the solution is loading in an airtight sealed container, thereby preventing the introduction of ambient air, which may contain water vapor, into the container.
structure (smiles),measurement,setting,value
CC1(C)C(/C=C/C=C/C=C/C=C2\N(CCCCS(=O)(=O)O)c3ccc4ccccc4c3C2(C)C)=[N+](CCCCS(=O)(=O)[O-])c2ccc3ccccc3c21 [indocyanine green],shelf life of ICG solutions (unstable),[1],a few days
same,shelf stable (shelf life of solution),[2],up to 1 year
same,shelf stable (shelf life of solution),[2]; listed as ICG,up to one
